{"source": "patent US20260048046A1", "about": "“METHOD FOR IMPROVING GROWTH PERFORMANCE IN FEEDLOT CATTLE” (Elanco US Inc., priority 2022, published 2026)", "test_system": "beef feedlot cattle", "experiment": "56-d study: abnormal health observations and removals", "type": "in vivo", "description": "This example describes a randomized complete block study that evaluated LUB dose (0, 1.5, 3.5, and 5.5 mg kg^−1 dry matter) during the last 56 d of the feeding period on live weight, carcass weight, and associated ratios in beef feedlot cattle. Carcass characteristics, mobility, and health were also evaluated. All cattle received monensin and tylosin throughout the study.\nA randomized complete block design was used to evaluate the effects of LUB on calculated growth performance of 2,880 British and Continental European crossbred steers typical for U.S. feedlots. Bos indicus breeding was limited to less than ⅛. The study evaluated four\nLUB doses: 0 (control, CON), 1.5, 3.5, and 5.5 mg·kg^−1 DM. There were 12 blocks, each block containing four replicate pens that started LUB feeding on the same date. Steers were randomized within each block of four pens with 60 steers per pen, resulting in a total of 720 steers enrolled in each treatment. LUB feeding started on Jun. 24, 2018, Jul. 1, 2018, and Jul. 15, 2018, four blocks on each date.\nDuring the approximately 10 to 15 d acclimation phase and the entire treatment phase until cattle were loaded for slaughter, all animals were observed by trained caretakers at least once daily, but health issues were only noted by exception. All abnormalities were recorded even if considered common for feedlot cattle. Abnormal health observations were observations that the observer considered as 1) typical for beef cattle at that age, or 2) not causing undue pain or distress to the animal, and/or, 3) not impeding the animal's growth at the time the observation was made. Animals with abnormal health observations were allowed to remain in the study. Animals were allowed to receive concomitant therapies (e.g., antibiotic treatment for respiratory disease and treatment for bloat). Health observations requiring an animal to be classified as “removed” were abnormalities that the observer considered as 1) resulting in pain or distress to the animal, or 2) likely to result in further deterioration of the animal's health, and/or 3) impairing the animal's ability to access food or water at the time of the observation. Animals removed from the study during the treatment or withdrawal phase were penned separately in the research feedlot and tracked through slaughter to assure accountability of all cattle on study per food use authorization or were euthanized and necropsied. Decisions to remove an animal from treatment phase were made by the Investigator or Manager. Animals that were found dead at the time of the observation were removed from the pen as soon as practical and necropsied (if possible).\nThe label claim variable of cumulative NH3 gas emissions over the treatment period normalized by final BW (with d −59 BW as a covariate) for the period and HCW (g of gas kg^−1 of BW or g of gas kg^−1 HCW) was determined by utilizing NH3 gas emissions equations developed from the LUB clinical effectiveness study (FDA-FOI, 2018) and validated using animals of similar BW as described by Brown et al. (2019). The pen was the experimental unit for each outcome. Differences were deemed significant using a two-sided test at Ptrt≤0.05, however, a less stringent significance threshold of Ptrt≤0.10 was used for abnormal health observations. Fixed effect of treatment and random effects of time replicate and block within time replicate were included in the model. Discrete variables were analyzed using a generalized linear mixed model, Proc GLIMMIX SAS version 9.4 unless there were convergence problems due to sparseness of data. A binomial distribution was assumed and a logit link used in the analysis. Contrasts were constructed between the CON group and each non-CON dosage group, and differences were deemed significant at Pdose≤0.05. […]", "key": {"[1]": {"conditions": "Lubabegron 1.5 mg·kg^−1 DM, 56 d, 720 hd per treatment"}, "[2]": {"conditions": "Lubabegron 3.5 mg·kg^−1 DM, 56 d, 720 hd per treatment"}, "[3]": {"conditions": "Lubabegron 5.5 mg·kg^−1 DM, 56 d, 720 hd per treatment"}}}
{"smiles": "CC(C)(Cc1ccc(Oc2ncccc2C#N)cc1)NC[C@H](O)COc1ccccc1-c1cccs1", "note": "[LUB, 2-{4-[2-({(2S)-2-Hydroxy-3-[2-(2-thienyl)phenoxy]propyl}amino)-2-methylpropyl]phenoxy}nicotinonitrile]", "values": [{"measurement": "Abnormal health observations and animal removals, between-treatment differences", "setting": "CON, 1.5, 3.5, 5.5 mg·kg^−1, 56 d, Ptrt>0.10", "value": "No significant (Ptrt>0.10) between-treatment differences"}, {"measurement": "Bloat (gastrointestinal), rate", "setting": "[1]", "value": 0.1, "unit": "%"}, {"measurement": "Bloat (gastrointestinal), total number", "setting": "[1]", "value": 1}, {"measurement": "Dead (animals found dead), rate", "setting": "[1]", "value": 0.3, "unit": "%"}, {"measurement": "Dead (animals found dead), total number", "setting": "[1]", "value": 2}, {"measurement": "Lameness (musculoskeletal), rate", "setting": "[1]", "value": 1.3, "unit": "%"}, {"measurement": "Lameness (musculoskeletal), total number", "setting": "[1]", "value": 9}, {"measurement": "Removals (found dead and removed during treatment phase), rate", "setting": "[1]", "value": 2.5, "unit": "%"}, {"measurement": "Removals (found dead and removed during treatment phase), total number", "setting": "[1]", "value": 18}, {"measurement": "Bloat (gastrointestinal), rate", "setting": "[2]", "value": 0.6, "unit": "%"}, {"measurement": "Bloat (gastrointestinal), total number", "setting": "[2]", "value": 4}, {"measurement": "Dead (animals found dead), rate", "setting": "[2]", "value": 0.7, "unit": "%"}, {"measurement": "Dead (animals found dead), total number", "setting": "[2]", "value": 5}, {"measurement": "Lameness (musculoskeletal), rate", "setting": "[2]", "value": 0.4, "unit": "%"}, {"measurement": "Lameness (musculoskeletal), total number", "setting": "[2]", "value": 3}, {"measurement": "Removals (found dead and removed during treatment phase), rate", "setting": "[2]", "value": 1.5, "unit": "%"}, {"measurement": "Removals (found dead and removed during treatment phase), total number", "setting": "[2]", "value": 11}, {"measurement": "Bloat (gastrointestinal), rate", "setting": "[3]", "value": 0.3, "unit": "%"}, {"measurement": "Bloat (gastrointestinal), total number", "setting": "[3]", "value": 2}, {"measurement": "Lameness (musculoskeletal), rate", "setting": "[3]", "value": 1.0, "unit": "%"}, {"measurement": "Lameness (musculoskeletal), total number", "setting": "[3]", "value": 7}, {"measurement": "Pneumonia (respiratory), rate", "setting": "[3]", "value": 0.3, "unit": "%"}, {"measurement": "Pneumonia (respiratory), total number", "setting": "[3]", "value": 2}, {"measurement": "Removals (found dead and removed during treatment phase), rate", "setting": "[3]", "value": 1.8, "unit": "%"}, {"measurement": "Removals (found dead and removed during treatment phase), total number", "setting": "[3]", "value": 13}]}
